# Read-outs that look alike come from different tables or passages of the source.
# Columns and labels:
# 6'-acetyltransferase = conditions: cited from earlier work; for acetylation by a 6'-acetyltransferase: enzyme obtained from aminoglycoside-resistant strains, such as Pseudomonas aeruginosa GN315
# [1] = system: resistant bacteria producing the 2"-nucleotidyltransferase; conditions: prior compounds; cited from earlier work
# [2] = system: resistant bacteria producing the aminoglycoside 6'-acetyltransferase; conditions: cited from earlier work
# [3] = system: resistant bacteria producing aminoglycoside 3'-phosphotransferase; conditions: cited from earlier work
# [4] = system: Escherichia coli K-12 ML 1629; experiment: Minimum inhibitory concentration, serial dilution on nutrient agar; type: cell-based; conditions: K12ML1629, 37° C., 18 hours, read-out: Minimum Inhibitory Concentrations
# Method: (§1) The minimum inhibitory concentrations (mcg/ml.) of 1-N-(L-4-amino-2-hydroxybutyryl)-kanamycin C (abbreviated as AHB-KC), 1-N-(L-4-amino-2-hydroxybutyryl)-3'-deoxykanamycin C (abbreviated as AHB-DKC) and 1-N-(L-4-amino-2-hydroxybutyryl)-3',4'-dideoxykanamycin C (abbreviated as AHB-DDKC) against various microorganisms were determined according to serial dilution method on nutrient agar medium at 37° C., the estimation being effected after 18 hours incubation. For comparison, the minimum inhibitory concentrations of 1-N-(L-4-amino-2-hydroxybutyryl)-kanamycin A (amikacin) was also determined in the same manner as described above.
# Escherichia coli K-12 R5 = experiment: as above; type: cell-based; conditions: K12R5, 18 h, read-out: Minimum Inhibitory Concentrations
# Method: as §1
# [5] = system: Klebsiella pneumoniae PCI 602; experiment: as above; type: cell-based; conditions: PCI602, 37° C., 18 hours, read-out: Minimum Inhibitory Concentrations
# Method: as §1
# [6] = system: Pseudomonas aeruginosa H 11; experiment: as above; type: cell-based; conditions: H11, 37° C., 18 hours, read-out: Minimum Inhibitory Concentrations
# Method: as §1
# Escherichia coli W 677 = experiment: as above; type: cell-based; conditions: W677, 37° C., 18 hours, read-out: Minimum Inhibitory Concentrations
# Method: as §1
# [7] = system: Pseudomonas aeruginosa No. 12; experiment: as above; type: cell-based; conditions: read-out: Minimum Inhibitory Concentrations
# Method: as §1
# [8] = system: Klebsiella pneumoniae 22 No. 3038; experiment: as above; type: cell-based; conditions: read-out: Minimum Inhibitory Concentrations
# Method: as §1
# [9] = system: Mycobacterium smegmatis ATCC 607; experiment: as above; type: cell-based; conditions: Mycolicibacterium smegmatis, ATCC607, 37° C., 18 hours, read-out: Minimum Inhibitory Concentrations
# Method: as §1
# [10] = system: Escherichia coli K-12 ML 1410; experiment: as above; type: cell-based; conditions: K12ML1410, 37° C., 18 hours, read-out: Minimum Inhibitory Concentrations
# Method: as §1
# [11] = system: Pseudomonas aeruginosa GN 315; experiment: as above; type: cell-based; conditions: GN315, 37° C., 18 hours, read-out: Minimum Inhibitory Concentrations
# Method: as §1
# [12] = system: Escherichia coli K-12 ML 1630; experiment: as above; type: cell-based; conditions: K12ML1630, 37° C., 18 hours, read-out: Minimum Inhibitory Concentrations
# Method: as §1
# [13] = system: Pseudomonas aeruginosa 99; experiment: as above; type: cell-based; conditions: 37° C., 18 hours, read-out: Minimum Inhibitory Concentrations
# Method: as §1
# [14] = system: Escherichia coli LA 290 R55; experiment: as above; type: cell-based; conditions: LA290R55, 18 h, read-out: Minimum Inhibitory Concentrations
# Method: as §1
# Escherichia coli NIHJ = experiment: as above; type: cell-based; conditions: 37° C., 18 hours, read-out: Minimum Inhibitory Concentrations
# Method: as §1
# [15] = system: Escherichia coli K-12 ML 1410 R81; experiment: as above; type: cell-based; conditions: 18 h, read-out: Minimum Inhibitory Concentrations
# Method: as §1
# [16] = system: Escherichia coli LA 290 R56; experiment: as above; type: cell-based; conditions: LA290R56, 18 h, read-out: Minimum Inhibitory Concentrations
# Method: as §1
# [17] = system: Staphylococcus aureus FDA 209P; experiment: as above; type: cell-based; conditions: FDA209P, 37° C., 18 hours, read-out: Minimum Inhibitory Concentrations
# Method: as §1
# [18] = system: Escherichia coli LA 290 R64; experiment: as above; type: cell-based; conditions: LA290R64, 18 h, read-out: Minimum Inhibitory Concentrations
# Method: as §1
# [19] = system: Escherichia coli JR 66/W677; experiment: as above; type: cell-based; conditions: read-out: Minimum Inhibitory Concentrations
# Method: as §1
# Escherichia coli K-12 = experiment: as above; type: cell-based; conditions: K12, 37° C., 18 hours, read-out: Minimum Inhibitory Concentrations
# Method: as §1
# [20] = system: Pseudomonas aeruginosa TI-13; experiment: as above; type: cell-based; conditions: read-out: Minimum Inhibitory Concentrations
# Method: as §1
# [21] = system: Pseudomonas aeruginosa A3; experiment: as above; type: cell-based; conditions: read-out: Minimum Inhibitory Concentrations
# Method: as §1
# [22] = LD50 upon intravenous injection in mice; conditions: mouse, in vivo, estimated
# [23] = Pseudomonas aeruginosa No. 12, nutrient agar, 37° C., 18 hours
# [24] = Klebsiella pneumoniae 22 No. 3038, nutrient agar, 37° C., 18 hours
# [25] = JR66/W677, Escherichia coli JR 66/W677, nutrient agar, 37° C., 18 hours
# [26] = TI13, Pseudomonas aeruginosa TI-13, nutrient agar, 37° C., 18 hours
# [27] = Pseudomonas aeruginosa A3, nutrient agar, 37° C., 18 hours
Compound,"growth inhibition of resistant bacteria producing the 2""-nucleotidyltransferase [1]",MIC [4] [µg/mL],MIC (Escherichia coli K-12 R5) [µg/mL],MIC [5] [µg/mL],MIC [6] [µg/mL],MIC (Escherichia coli W 677) [µg/mL],"MIC [7, 23] [µg/mL]","MIC [8, 24] [µg/mL]",MIC [9] [µg/mL],MIC [10] [µg/mL],MIC [11] [µg/mL],MIC [12] [µg/mL],MIC [13] [µg/mL],MIC [14] [µg/mL],MIC (Escherichia coli NIHJ) [µg/mL],MIC [15] [µg/mL],MIC [16] [µg/mL],MIC [17] [µg/mL],MIC [18] [µg/mL],MIC (Escherichia coli K-12) [µg/mL],further results
NCCC(O)C(=O)NC1CC(N)C(OC2OC(CN)C(O)C(O)C2N)C(O)C1OC1OC(CO)C(O)C(N)C1O [1-N-(L-4-amino-2-hydroxybutyryl)-kanamycin B],,,,,,,,,,,,,,,,,,,,,acetylation by a 6'-acetyltransferase (6'-acetyltransferase): acetylated
"NC1CCC(CO)OC1OC1C(N)CC(N)C(OC2OC(CO)C(O)C(N)C2O)C1O (stereo not drawn) [3',4 '-dideoxykanamycin C, 3',4'-dideoxykanamycin C]",not able to inhibit the growth,,,,,,,,,,,,,,,,,,,,
"NCC1CCC(N)C(OC2C(N)CC(N)C(OC3OC(CO)C(O)C(N)C3O)C2O)O1 (stereo not drawn) [3',4'-dideoxykanamycin B]",do not inhibit the growth,,,,,,,,,,,,,,,,,,,,growth inhibition of resistant bacteria producing the aminoglycoside 6'-acetyltransferase [2]: do not inhibit the growth; activity against resistant bacteria producing aminoglycoside 3'-phosphotransferase [3]: active against the resistant bacteria
NCC1OC(OC2C(N)CC(N)C(OC3OC(CO)C(O)C(N)C3O)C2O)C(N)CC1O (stereo not drawn) [3'-deoxykanamycin B],do not inhibit the growth,,,,,,,,,,,,,,,,,,,,growth inhibition of resistant bacteria producing the aminoglycoside 6'-acetyltransferase [2]: do not inhibit the growth; activity against resistant bacteria producing aminoglycoside 3'-phosphotransferase [3]: active against the resistant bacteria
NC1CC(O)C(CO)OC1OC1C(N)CC(N)C(OC2OC(CO)C(O)C(N)C2O)C1O (stereo not drawn) [3'-deoxykanamycin C],not able to inhibit the growth,,,,,,,,,,,,,,,,,,,,
"NCCC(O)C(=O)NC1CC(N)C(OC2OC(CO)CCC2N)C(O)C1OC1OC(CO)C(O)C(N)C1O [AHB-DDKC, 1-N-(L-4-amino-2-hydroxybutyryl)-3',4'-dideoxykanamycin C]",,6.25,12.5,6.25,100,12.5,100,25,6.25,25,100,12.5,100,12.5,12.5,25,6.25,12.5,12.5,12.5,"MIC [19, 25]: 25 µg/mL; MIC [20, 26]: 100 µg/mL; MIC [21, 27]: 12.5 µg/mL"
"NCCC(O)C(=O)NC1CC(N)C(OC2OC(CO)C(O)CC2N)C(O)C1OC1OC(CO)C(O)C(N)C1O [AHB-DKC, 1-N-(L-4-amino-2-hydroxybutyryl)-3'-deoxykanamycin C]",,6.25,6.25,3.13,50,6.25,50,6.25,12.5,6.25,50,12.5,100,12.5,6.25,12.5,6.25,6.25,3.13,6.25,"MIC [19, 25]: 12.5 µg/mL; MIC [20, 26]: 50 µg/mL; MIC [21, 27]: 6.25 µg/mL; LD50 [22]: > 400 mg/kg"
"NCCC(O)C(=O)NC1CC(N)C(OC2OC(CO)C(O)C(O)C2N)C(O)C1OC1OC(CO)C(O)C(N)C1O [AHB-KC, 1-N-(L-4-amino-2-hydroxybutyryl)-kanamycin C]",,6.25,6.25,3.13,100,12.5,50,12.5,3.13,25,50,12.5,100,12.5,6.25,12.5,6.25,6.25,12.5,12.5,"MIC [19, 25]: 25 µg/mL; MIC [20, 26]: 50 µg/mL; MIC [21, 27]: 12.5 µg/mL; LD50 [22]: > 400 mg/kg"
"NCC[C@H](O)C(=O)N[C@@H]1C[C@H](N)[C@@H](O[C@H]2O[C@H](CN)[C@@H](O)[C@H](O)[C@H]2O)[C@H](O)[C@H]1O[C@H]1O[C@H](CO)[C@@H](O)[C@H](N)[C@H]1O [Amikacin, 1-N-(L-4-amino-2-hydroxybutyryl)-kanamycin A, reference compound]",,0.78,0.39,0.39,12.5,< 0.2,,,< 0.2,0.78,100,0.78,6.25,0.78,0.78,1.56,0.39,0.39,0.39,0.78,"MIC ([7]; Pseudomonas aeruginosa, NO.12, 18 h): 3.13 µg/mL; MIC ([8]; Klebsiella pneumoniae, 22NO.3038, 18 h): 1.56 µg/mL; MIC ([19]; Escherichia coli, JR66/W677, 18 h): 1.56 µg/mL; MIC ([20]; Pseudomonas aeruginosa, TI13, 18 h): 3.13 µg/mL; MIC ([21]; Pseudomonas aeruginosa, A3, 18 h): 3.13 µg/mL; acetylation by a 6'-acetyltransferase (6'-acetyltransferase): acetylated"
NC1CC(N)C(OC2OC(CO)C(O)C(N)C2O)C(O)C1OC1OC(CO)C(O)C(O)C1N (stereo not drawn) [kanamycin C],not able to inhibit the growth,,,,,,,,,,,,,,,,,,,,inactivation by the 6'-acetyltransferase (6'-acetyltransferase; see co-pending applications): cannot be inactivated

# Source: patent US4140849A, “Kanamycin C derivatives” (Zaidan Hojin Biseibutsu Kagaku Kenkyu Kai, priority 1977, dated 1979)
